Measured values taken from ChEMBL document CHEMBL2034935, “Discovery of a Novel Series of CRTH2 (DP2) Receptor Antagonists Devoid of Carboxylic Acids” (ACS Med Chem Lett, 2011).
Active and inactive are the calls of the source. The rule behind the calls is not given here.

Legend:
[1] = biological target: T1, Prostaglandin D2 receptor 2 (Homo sapiens, UniProt Q9Y5Y4); test: Displacement of [3HPGD2 from human CRTH2 receptor expressed in CHO cell membrane after 90 mins by scintillation proximity assay; assay type: cell membranes
T1 sequence (Q9Y5Y4 whole entry): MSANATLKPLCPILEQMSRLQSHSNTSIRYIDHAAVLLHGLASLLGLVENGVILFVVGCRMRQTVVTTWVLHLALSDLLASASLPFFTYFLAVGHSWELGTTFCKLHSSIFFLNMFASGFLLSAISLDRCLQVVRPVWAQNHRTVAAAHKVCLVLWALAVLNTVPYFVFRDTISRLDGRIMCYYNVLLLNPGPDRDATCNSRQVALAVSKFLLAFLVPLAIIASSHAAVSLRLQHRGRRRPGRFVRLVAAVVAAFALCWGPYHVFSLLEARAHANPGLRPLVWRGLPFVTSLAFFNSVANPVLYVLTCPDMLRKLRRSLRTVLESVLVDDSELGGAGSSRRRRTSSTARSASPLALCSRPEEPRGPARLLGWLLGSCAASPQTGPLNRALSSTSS

[2] = biological target: Cytochrome P450 2C9 (Homo sapiens, UniProt P11712); test: Inhibition of human recombinant CYP2C9 incubated for 15 mins prior to substrate addition measured after 30 mins by spectrophotometry; assay type: ADME
Sequence of Cytochrome P450 2C9 (P11712 whole entry): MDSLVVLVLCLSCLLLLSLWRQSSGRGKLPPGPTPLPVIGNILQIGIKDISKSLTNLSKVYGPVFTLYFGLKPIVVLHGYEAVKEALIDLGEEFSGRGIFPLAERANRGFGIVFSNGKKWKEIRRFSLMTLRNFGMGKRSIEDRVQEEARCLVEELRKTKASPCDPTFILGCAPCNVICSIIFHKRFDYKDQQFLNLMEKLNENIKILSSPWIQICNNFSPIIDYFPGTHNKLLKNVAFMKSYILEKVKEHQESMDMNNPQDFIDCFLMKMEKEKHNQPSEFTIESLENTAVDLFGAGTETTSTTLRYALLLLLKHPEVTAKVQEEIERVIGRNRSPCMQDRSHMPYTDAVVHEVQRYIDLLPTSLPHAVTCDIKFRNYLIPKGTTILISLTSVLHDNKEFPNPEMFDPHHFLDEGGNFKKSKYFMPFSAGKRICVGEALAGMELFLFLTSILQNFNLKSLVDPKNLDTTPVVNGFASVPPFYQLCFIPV

[3] = biological target: T2, Cytochrome P450 2C8 (Homo sapiens, UniProt P10632); test: Inhibition of human recombinant CYP2C8 incubated for 15 mins prior to substrate addition measured after 30 mins by spectrophotometry; assay type: ADME
T2 sequence (P10632 whole entry): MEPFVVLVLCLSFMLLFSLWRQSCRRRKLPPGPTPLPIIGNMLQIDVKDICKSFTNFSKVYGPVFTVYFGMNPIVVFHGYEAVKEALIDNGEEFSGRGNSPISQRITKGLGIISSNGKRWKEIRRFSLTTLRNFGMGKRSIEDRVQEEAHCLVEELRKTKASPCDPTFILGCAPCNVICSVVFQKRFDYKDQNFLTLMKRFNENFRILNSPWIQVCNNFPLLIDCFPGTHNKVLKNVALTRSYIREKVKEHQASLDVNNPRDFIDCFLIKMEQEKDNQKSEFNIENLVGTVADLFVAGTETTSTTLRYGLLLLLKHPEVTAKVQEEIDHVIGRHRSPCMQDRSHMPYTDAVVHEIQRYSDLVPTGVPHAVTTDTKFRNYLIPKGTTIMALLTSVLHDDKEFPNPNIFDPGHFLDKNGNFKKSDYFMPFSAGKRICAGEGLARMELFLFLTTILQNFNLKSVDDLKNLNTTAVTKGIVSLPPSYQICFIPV

[4] = Intrinsic clearance in rat liver microsomes assessed per mg protein at 1 uM up to 45 mins by LC/MS analysis; assay type: ADME, Microsome; conditions: read-out: CLH
[5] = biological target: Cytochrome P450 2C19 (Homo sapiens, UniProt P33261); test: Inhibition of human recombinant CYP2C19 incubated for 15 mins prior to substrate addition measured after 30 mins by spectrophotometry; assay type: ADME
Sequence of Cytochrome P450 2C19 (P33261 whole entry): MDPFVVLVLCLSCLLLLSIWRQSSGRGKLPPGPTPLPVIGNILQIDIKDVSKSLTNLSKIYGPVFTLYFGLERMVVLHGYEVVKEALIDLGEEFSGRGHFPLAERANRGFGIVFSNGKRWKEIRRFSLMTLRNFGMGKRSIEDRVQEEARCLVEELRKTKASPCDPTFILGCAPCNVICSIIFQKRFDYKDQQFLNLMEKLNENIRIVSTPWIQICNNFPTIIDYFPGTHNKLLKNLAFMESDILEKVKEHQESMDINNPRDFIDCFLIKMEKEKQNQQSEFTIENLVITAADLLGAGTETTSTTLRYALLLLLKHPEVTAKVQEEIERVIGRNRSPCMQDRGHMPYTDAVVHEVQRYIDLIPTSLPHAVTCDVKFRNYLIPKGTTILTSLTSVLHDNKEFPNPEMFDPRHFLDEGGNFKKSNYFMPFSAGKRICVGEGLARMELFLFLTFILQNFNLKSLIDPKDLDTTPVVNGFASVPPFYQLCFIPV

[6] = Intrinsic clearance in human liver microsomes assessed per mg protein at 1 uM up to 45 mins by LC/MS analysis; assay type: ADME, Microsome; conditions: read-out: CLH
[7] = biological target: T3, Prostaglandin D2 receptor 2 (Homo sapiens) (UniProt Q9Y5Y4); test: Antagonist activity at human CRTH2 receptor expressed in CHO cell membrane assessed as inhibition of PGD2-induced [35S]GTPgammaS binding at 2 uM after 30 mins by microbeta scintillation counting relative to control; assay type: functional, cell membranes
T3 sequence (whole entry): T1 sequence (Q9Y5Y4 whole entry)

[8] = biological target: T1, Prostaglandin D2 receptor 2; test: Antagonist activity at human CRTH2 receptor expressed in CHO cell membrane assessed as inhibition of PGD2-induced [35S]GTPgammaS binding after 30 mins by microbeta scintillation counting; assay type: functional, cell membranes
[9] = biological target: T3, Prostaglandin D2 receptor 2 (Homo sapiens); test: Agonist activity at human CRTH2 receptor expressed in CHO cell membrane assessed as induction of [35S]GTPgammaS binding at 20 uM after 30 mins by microbeta scintillation counting relative to PGD2; assay type: functional, cell membranes

CCCCC(=O)N(Cc1ccc2c(c1)OCCO2)c1cc(-c2nnn[nH]2)c(F)cc1F
Ki [1]: 45 nM

CCCCC(=O)N(Cc1ccc(OC)cc1)c1cccc(-c2nnn[nH]2)c1
IC50 [2]: 840 nM | IC50 [3]: 320 nM | Ki [1]: 50 nM | microsomal CLint at 1 µM [4]: 43 µL/min/mg | IC50 [5]: 260 nM | microsomal CLint at 1 µM [6]: > 1000 µL/min/mg

CCC(=O)N(Cc1cccc(OC(C)C)c1)c1cc(F)cc(-c2nnn[nH]2)c1
IC50 [2]: 340 nM | IC50 [3]: 470 nM | Ki [1]: 6.4 nM | microsomal CLint at 1 µM [4]: 30 µL/min/mg | IC50 [5]: 900 nM | microsomal CLint at 1 µM [6]: 1700 µL/min/mg

CCC(=O)N(Cc1cccc(C)c1)c1cccc(-c2nnn[nH]2)c1
Ki [1]: 580 nM

CCC(=O)N(Cc1cccc(OC)c1)c1cccc(-c2nnn[nH]2)c1
Ki [1]: 360 nM

CCC(=O)N(Cc1cccc(OC)c1)c1cc(F)cc(-c2nnn[nH]2)c1
inhibition [7]: 107% | IC50 [8]: 64 nM | Emax [9]: -11% | Ki [1]: 8.2 nM

CCC(=O)N(Cc1ccc(S(=O)(=O)C(F)(F)F)cc1)c1cc(F)cc(-c2nnn[nH]2)c1
Ki [1]: 5.2 nM

CCC(=O)N(Cc1ccc(S(C)(=O)=O)cc1)c1cc(F)cc(-c2nnn[nH]2)c1
IC50 [2]: > 20000 nM | IC50 [3]: 54 nM | Ki [1]: 3.1 nM | microsomal CLint at 1 µM [4]: < 10 µL/min/mg | IC50 [5]: 150 nM | microsomal CLint at 1 µM [6]: < 10 µL/min/mg

CCCC(=O)N(Cc1ccc2c(c1)OCCO2)c1cc(-c2nnn[nH]2)ccc1F
Ki [1]: 4.9 nM

CCC(=O)N(Cc1ccc(S(C)(=O)=O)cc1)c1cccc(-c2nnn[nH]2)c1
Ki [1]: 69 nM

CCC(=O)N(Cc1cccc(F)c1)c1cccc(-c2nnn[nH]2)c1
Ki [1]: 1400 nM

CCC(=O)N(Cc1ccc2c(c1)OCCO2)c1cc(-c2nnn[nH]2)ccc1F
Ki [1]: 11 nM

CCC(=O)N(Cc1cccc(O)c1)c1cc(F)cc(-c2nnn[nH]2)c1
inhibition [7]: 106% | Emax [9]: -17% | IC50 [2]: 2000 nM | IC50 [3]: 970 nM | microsomal CLint at 1 µM [4]: 10 µL/min/mg | IC50 [5]: 3700 nM | microsomal CLint at 1 µM [6]: 55 µL/min/mg

CCCCC(=O)N(Cc1ccc2c(c1)OCCO2)c1cc(F)cc(-c2nnn[nH]2)c1
inhibition [7]: 102% | IC50 [8]: 2.8 nM | Emax [9]: -15% | Ki [1]: 2 nM

CS(=O)(=O)c1ccc(CN(C(=O)c2ccccc2)c2cc(F)cc(-c3nnn[nH]3)c2)cc1
Ki [1]: 2.2 nM

C#Cc1cccc(CN(C(C)=O)c2cc(-c3nnn[nH]3)ccc2F)c1
Ki [1]: 140 nM

CCCCC(=O)N(Cc1cccc(OC)c1)c1cccc(C(=O)O)c1
Ki [1]: 8000 nM

CCC(=O)N(Cc1ccc(O)cc1)c1cc(F)cc(-c2nnn[nH]2)c1
Ki [1]: 22 nM

CCCCC(=O)N(Cc1ccc(OC)cc1)c1cc(Cl)cc(-c2nnn[nH]2)c1
inhibition [7]: 110% | IC50 [8]: 10 nM | Emax [9]: -10% | Ki [1]: 3.6 nM

CCCCC(=O)N(Cc1ccc2c(c1)OCCO2)c1cccc(-c2nnn[nH]2)c1
IC50 [2]: 640 nM | IC50 [3]: 570 nM | Ki [1]: 7 nM | microsomal CLint at 1 µM [4]: 125 µL/min/mg | IC50 [5]: 680 nM | microsomal CLint at 1 µM [6]: > 1000 µL/min/mg

CCC(=O)N(Cc1ccc2c(c1)OCCO2)c1cccc(-c2nnn[nH]2)c1
Ki [1]: 42 nM

CS(=O)(=O)c1ccc(CN(C(=O)Cc2ccccc2)c2cc(F)cc(-c3nnn[nH]3)c2)cc1
inhibition [7]: 94% | IC50 [8]: 3.7 nM | Emax [9]: -10% | IC50 [2]: 290 nM | IC50 [3]: 50 nM | Ki [1]: 0.9 nM | microsomal CLint at 1 µM [4]: 20 µL/min/mg | IC50 [5]: 170 nM | microsomal CLint at 1 µM [6]: 28 µL/min/mg

CS(=O)(=O)c1ccc(CN(C(=O)c2ccncc2)c2cc(F)cc(-c3nnn[nH]3)c2)cc1
Ki [1]: 17 nM

CCCCC(=O)N(Cc1ccc2cnccc2c1)c1cccc(-c2nnn[nH]2)c1
Ki [1]: 330 nM

CC(C)C(=O)N(Cc1ccc(S(C)(=O)=O)cc1)c1cc(F)cc(-c2nnn[nH]2)c1
Ki [1]: 17 nM

CCC(=O)N(Cc1ccccc1)c1cccc(-c2nnn[nH]2)c1
Ki [1]: 1800 nM

CCCCC(=O)N(Cc1ccc2ccccc2c1)c1cc(-c2nnn[nH]2)ccc1F
Ki [1]: 18 nM

CCC(=O)N(Cc1ccccc1F)c1cccc(-c2nnn[nH]2)c1
Ki [1]: 950 nM

CCCCC(=O)N(Cc1ccc2ccccc2c1)c1cccc(-c2nnn[nH]2)c1
Ki [1]: 39 nM

CCC(=O)N(Cc1ccc2ccccc2n1)c1cc(F)cc(-c2nnn[nH]2)c1
Ki [1]: 56 nM

CCCCC(=O)N(Cc1cccc(OC)c1)c1cc(F)cc(-c2nnn[nH]2)c1
Ki [1]: 3 nM

CS(=O)(=O)c1ccc(CN(C(=O)C2CCOCC2)c2cc(F)cc(-c3nnn[nH]3)c2)cc1
Ki [1]: 28 nM

CCC(=O)N(Cc1ccc2c(c1)OCO2)c1cccc(-c2nnn[nH]2)c1
Ki [1]: 130 nM

CCCCC(=O)N(Cc1ccc(OC)cc1)c1cc(F)cc(-c2nnn[nH]2)c1
Ki [1]: 3 nM

CCC(=O)N(Cc1ccc(OC)cc1)c1cccc(-c2nnn[nH]2)c1
Ki [1]: 220 nM

CC(C)CC(=O)N(Cc1ccc(S(C)(=O)=O)cc1)c1cc(F)cc(-c2nnn[nH]2)c1
inhibition [7]: 85% | IC50 [8]: 46 nM | Emax [9]: inactive | IC50 [2]: 1700 nM | IC50 [3]: 79 nM | Ki [1]: 3.2 nM | microsomal CLint at 1 µM [4]: 17 µL/min/mg | IC50 [5]: 7500 nM | microsomal CLint at 1 µM [6]: 17 µL/min/mg

CCC(=O)N(Cc1ccc(OC)cc1)c1cc(F)cc(-c2nnn[nH]2)c1
Ki [1]: 7.6 nM

CCCCC(=O)N(Cc1cccs1)c1cccc(-c2nnn[nH]2)c1
Ki [1]: 620 nM

Cc1ccc(CCC(=O)N(Cc2ccc(S(C)(=O)=O)cc2)c2cc(F)cc(-c3nnn[nH]3)c2)cc1
Ki [1]: 2.5 nM

CS(=O)(=O)c1ccc(CN(C(=O)C2CCCC2)c2cc(F)cc(-c3nnn[nH]3)c2)cc1
inhibition [7]: 80% | IC50 [8]: 57 nM | Emax [9]: 7% | IC50 [2]: 7400 nM | IC50 [3]: 220 nM | Ki [1]: 5.4 nM | microsomal CLint at 1 µM [4]: 40 µL/min/mg | IC50 [5]: 12000 nM | microsomal CLint at 1 µM [6]: 92 µL/min/mg

CCCCC(=O)N(Cc1ccc2c(c1)OCCO2)c1cc(-c2nnn[nH]2)ccc1F
Ki [1]: 3.3 nM

CCC(=O)N(Cc1ccc(F)cc1)c1cccc(-c2nnn[nH]2)c1
Ki [1]: 1200 nM

CCCCC(=O)N(Cc1cc2ccccc2o1)c1cc(-c2nnn[nH]2)ccc1F
Ki [1]: 7.1 nM

CCCC(=O)N(Cc1ccc2c(c1)OCCO2)c1cccc(-c2nnn[nH]2)c1
Ki [1]: 12 nM

C#Cc1cccc(CN(C(=O)CCCC)c2cc(-c3nnn[nH]3)ccc2F)c1
Ki [1]: 10 nM

CCCCC(=O)N(Cc1cccc(OC)c1)c1cccc(-c2nnn[nH]2)c1
Ki [1]: 44 nM

CCCCC(=O)N(Cc1ccc2c(c1)OCCO2)c1cccc(CC(=O)O)c1
Ki [1]: 4300 nM

CS(=O)(=O)c1ccc(CN(C(=O)c2cccnc2)c2cc(F)cc(-c3nnn[nH]3)c2)cc1
Ki [1]: 4 nM

CC(C)CC(=O)N(Cc1ccc2c(c1)OCCO2)c1cc(-c2nnn[nH]2)ccc1F
Ki [1]: 5.6 nM
